System: NOMO1
Assay: cell viability relative to DMSO control; higher = less cytotoxic
Conditions: 48 h
Outline: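 Leukemia cells (NOMO1 or SEM, 500 cells/well; P12-Ichikawa, 1000 cells/well) were seeded in 5 μl in 1536-well plates after at least four passages of adaptation to each medium. They received library compounds in DMSO by pin dosing, 11 threefold points from 47 μM to 0.79 nM. Luminescence with CellTiter-Glo One was read after 48 h at 37°C. Viability is stated per plate relative to DMSO wells, with cell-free wells as background.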

[1] = HPLM + 10% dialyzed FBS, 0.000781 µM
[2] = HPLM + 10% dialyzed FBS, 0.00234 µM
[3] = HPLM + 10% dialyzed FBS, 0.00702 µM
[4] = HPLM + 10% dialyzed FBS, 0.0211 µM
[5] = HPLM + 10% dialyzed FBS, 0.0632 µM
[6] = HPLM + 10% dialyzed FBS, 0.19 µM
[7] = HPLM + 10% dialyzed FBS, 0.569 µM
[8] = HPLM + 10% dialyzed FBS, 1.71 µM
[9] = HPLM + 10% dialyzed FBS, 5.12 µM
[10] = HPLM + 10% dialyzed FBS, 15.4 µM
[11] = HPLM + 10% dialyzed FBS, 46.1 µM
[12] = RPMI 5 mM glucose + 10% FBS, 0.000781 µM
[13] = RPMI 5 mM glucose + 10% FBS, 0.00234 µM
[14] = RPMI 5 mM glucose + 10% FBS, 0.00702 µM
[15] = RPMI 5 mM glucose + 10% FBS, 0.0211 µM
[16] = RPMI 5 mM glucose + 10% FBS, 0.0632 µM
[17] = RPMI 5 mM glucose + 10% FBS, 0.19 µM
[18] = RPMI 5 mM glucose + 10% FBS, 0.569 µM
[19] = RPMI 5 mM glucose + 10% FBS, 1.71 µM
[20] = RPMI 5 mM glucose + 10% FBS, 5.12 µM
[21] = RPMI 5 mM glucose + 10% FBS, 15.4 µM
[22] = RPMI 5 mM glucose + 10% FBS, 46.1 µM
[23] = RPMI 5 mM glucose + 10% dialyzed FBS, 0.000781 µM
[24] = RPMI 5 mM glucose + 10% dialyzed FBS, 0.00234 µM
[25] = RPMI 5 mM glucose + 10% dialyzed FBS, 0.00702 µM
[26] = RPMI 5 mM glucose + 10% dialyzed FBS, 0.0211 µM
[27] = RPMI 5 mM glucose + 10% dialyzed FBS, 0.0632 µM
[28] = RPMI 5 mM glucose + 10% dialyzed FBS, 0.19 µM
[29] = RPMI 5 mM glucose + 10% dialyzed FBS, 0.569 µM
[30] = RPMI 5 mM glucose + 10% dialyzed FBS, 1.71 µM
[31] = RPMI 5 mM glucose + 10% dialyzed FBS, 5.12 µM
[32] = RPMI 5 mM glucose + 10% dialyzed FBS, 15.4 µM
[33] = RPMI 5 mM glucose + 10% dialyzed FBS, 46.1 µM

SMILES | cell viability [1] [%] | cell viability [2] [%] | cell viability [3] [%] | cell viability [4] [%] | cell viability [5] [%] | cell viability [6] [%] | cell viability [7] [%] | cell viability [8] [%] | cell viability [9] [%] | cell viability [10] [%] | cell viability [11] [%] | cell viability [12] [%] | cell viability [13] [%] | cell viability [14] [%] | cell viability [15] [%] | cell viability [16] [%] | cell viability [17] [%] | cell viability [18] [%] | cell viability [19] [%] | cell viability [20] [%] | cell viability [21] [%] | cell viability [22] [%] | cell viability [23] [%] | cell viability [24] [%] | cell viability [25] [%] | cell viability [26] [%] | cell viability [27] [%] | cell viability [28] [%] | cell viability [29] [%] | cell viability [30] [%] | cell viability [31] [%] | cell viability [32] [%] | cell viability [33] [%]
CCC(=O)NC[C@H](Cc1ccc(OCCc2nc(-c3ccccc3)oc2C)cc1)N/C(C)=C\C(=O)c1ccc(C(F)(F)F)cc1 | 98.9 | 104 | 101 | 122 | 114 | 130 | 96.3 | 104 | 103 | 54.3 | 27.1 | 102 | 114 | 109 | 99.6 | 106 | 112 | 101 | 109 | 113 | 62.4 | 19.2 | 97.9 | 113 | 102 | 115 | 106 | 117 | 107 | 107 | 90.8 | 105 | 43.7
CCCC[S+](=N)([O-])CCC(N)C(=O)O (stereo unspecified) | 120 | 122 | 138 | 138 | 157 | 131 | 150 | 142 | 148 | 89.2 | 28.7 |  |  |  |  |  |  |  |  |  |  |  |  |  |  |  |  |  |  |  |  |  | 
COCC(=O)NC/C=C/c1ccc2ncnc(Nc3ccc(Oc4ccc(C)nc4)c(C)c3)c2c1 | 84.6 | 89.4 | 109 | 90.8 | 92.1 | 57.3 | 65.8 | 52.9 | 37 | 42.4 | 34.2 | 94.2 | 96.4 | 107 | 95 | 90.6 | 81.3 | 78 | 49.7 | 60.2 | 50.1 | 52.8 | 87.7 | 90.6 | 93.9 | 99.8 | 97.4 | 92.2 | 78.4 | 71.2 | 57.6 | 66.8 | 41
CC1(C)[C@@H](O)CC[C@@]2(C)[C@H]1CC[C@]3(C)[C@@H]2C(=O)\C=C/4[C@@H]5C[C@](C)(CC[C@]5(C)CC[C@@]34C)C(O)=O | 102 | 113 | 120 | 127 | 116 | 113 | 118 | 118 | 116 | 124 | 112 | 110 | 99.1 | 110 | 116 | 95.7 | 103 | 102 | 95 | 98.1 | 93.9 | 86.8 | 104 | 108 | 117 | 115 | 115 | 103 | 116 | 117 | 92 | 97.7 | 97.9
CCOc1cc(C(=O)Nc2ccc(Cl)c(-c3nc4ccccc4[nH]3)c2)cc(OCC)c1OCC | 79.3 | 104 | 101 | 102 | 104 | 108 | 105 | 115 | 107 | 116 | 63.3 | 72.8 | 90.6 | 81.9 | 92.8 | 93 | 90.3 | 83.5 | 83.2 | 88.2 | 98.1 | 59.1 | 83.8 | 84.3 | 104 | 84.6 | 84.6 | 90.3 | 87.3 | 95 | 109 | 101 | 50.1
C[C@@H]1CC[C@@]2(CC[C@]3(C)\C(=C/C[C@@H]4[C@@]5(C)C[C@@H](O)[C@H](O)[C@@](C)(CO)[C@@H]5CC[C@@]34C)[C@@H]2[C@H]1C)C(O)=O | 120 | 127 | 121 | 109 | 109 | 123 | 123 | 106 | 138 | 120 | 130 | 104 | 99.9 | 117 | 107 | 101 | 104 | 110 | 114 | 109 | 119 | 117 | 104 | 119 | 120 | 115 | 122 | 111 | 125 | 108 | 120 | 114 | 120
Cc1nc(-c2ccc(-c3ccc(C(=O)N4CCc5cc6c(cc54)C4(CCN(C)CC4)CO6)cc3)c(C)c2)no1 | 92.2 | 119 | 105 | 124 | 136 | 131 | 128 | 129 | 127 | 127 | 135 | 107 | 120 | 111 | 104 | 116 | 115 | 128 | 104 | 110 | 111 | 112 | 104 | 111 | 116 | 104 | 101 | 131 | 135 | 118 | 122 | 117 | 118
NCCOc1cc(C(=O)Nc2cc(OCCN)c3ccccc3n2)nc(C(=O)Nc2cc(OCCN)c3ccccc3n2)c1 | 65.8 | 36.4 | 43.9 | 40.8 | 38.1 | 47.5 | 43.2 | 40.3 | 42.2 | 56.4 | 56.4 | 96 | 60.5 | 42.3 | 27 | 25.8 | 25.2 | 27.9 | 24 | 25.8 | 38.5 | 64.1 |  |  |  |  |  |  |  |  |  |  | 
COc1cccc(OC)c1-c1cc(C(=O)NC2(C(=O)O)C3CC4CC(C3)CC2C4)nn1-c1ccnc2cc(Cl)ccc12 (stereo unspecified) | 129 | 111 | 125 | 135 | 119 | 123 | 102 | 118 | 116 | 111 | 98.9 | 102 | 99.6 | 97.9 | 109 | 99.7 | 100 | 104 | 97.3 | 104 | 107 | 90.8 | 104 | 116 | 108 | 109 | 113 | 104 | 101 | 95.2 | 108 | 91 | 105
CN(C[C@@H]1COCCO1)[S+]([O-])(=O)NC2=CC3=C(C=C2)\C=C/C4=C(C=C(C=N4)C5=C[N](C)N=C5)C3=O | 89.6 | 107 | 92.5 | 92.1 | 84.5 | 72.2 | 62.2 | 47.1 | 41.1 | 26.2 | 26.6 | 92.2 | 101 | 90.6 | 114 | 93.8 | 91.2 | 86.9 | 57.1 | 49.5 | 35.2 | 33.3 | 84.5 | 104 | 98.4 | 87.4 | 99.2 | 91.9 | 73.7 | 52.1 | 48.9 | 39.8 | 31.6
O=C1\C=C(OC2=C(C=CC=C12)C3=CC=CC4=C3SC5=C4C=CC=C5)\N6CCOCC6 | 123 | 123 | 129 | 128 | 135 | 121 | 135 | 133 | 114 | 132 | 112 |  |  |  |  |  |  |  |  |  |  |  | 113 | 121 | 125 | 131 | 128 | 129 | 133 | 136 | 116 | 117 | 107
CCN1\C=C(C(O)=O)/C(=O)C2=C1C(=C(N3CCNC(C)C3)C(=C2)F)F (stereo unspecified) | 101 | 103 | 114 | 115 | 118 | 121 | 121 | 129 | 128 | 120 | 114 | 114 | 117 | 102 | 115 | 121 | 107 | 122 | 116 | 123 | 116 | 111 | 103 | 112 | 104 | 106 | 118 | 112 | 111 | 122 | 113 | 139 | 98.3
COc1cc(N2CCC(N3CCN(C)CC3)CC2)ccc1Nc1ncc(Cl)c(Nc2ccccc2[S+](=O)([O-])C(C)C)n1 | 69.2 | 80 | 98.6 | 118 | 147 | 124 | 130 | 65.1 | 55.6 | 38.7 | 17.1 | 87.2 | 73.3 | 125 | 136 | 133 | 134 | 130 | 75.9 | 64.9 | 61.5 | 49.6 | 78.3 | 66.3 | 103 | 113 | 146 | 142 | 131 | 84.3 | 61.4 | 60.4 | 59.1
O=C(Nc1cccnc1)N1CCC(Cc2cccc(Oc3ccc(C(F)(F)F)cn3)c2)CC1 | 98.9 | 112 | 108 | 116 | 115 | 115 | 116 | 91.4 | 81.3 | 32.6 | 19 | 111 | 104 | 99.7 | 98.6 | 110 | 107 | 108 | 101 | 108 | 35.1 | 23 | 98.2 | 103 | 92.1 | 102 | 102 | 118 | 116 | 107 | 85.8 | 47 | 31.5
Cc1cnc(Nc2cccc(CN3CCOCC3)c2)nc1Nc1cccc([S+](=O)([O-])NC(C)(C)C)c1 | 87.9 | 99.6 | 100 | 96.4 | 107 | 108 | 104 | 97.8 | 61.5 | 100 | 84.1 | 79.8 | 85.1 | 85.4 | 94.8 | 83.8 | 78.1 | 80.4 | 75.2 | 35.1 | 86.3 | 85.5 | 84 | 96.7 | 86.2 | 90.7 | 88 | 98.6 | 93.6 | 85.1 | 43.5 | 90.7 | 87.3
